From patent US4613609A, “Antiarrhythmic imidazoliums” (Schering A. G., priority 1984, dated 1986)
Where a name gives a salt, the structure may show the parent alone. Read-outs that look alike come from different tables or passages of the source.

Test system: Canine Purkinje fiber
Experiment: In vitro electro-physiological screen using canine Purkinje fibers (action potential characteristics, microelectrode)
Type: cell-based
Details: for Emax at 30 µM / Emax at 10 µM / Emax at 100 µM: read-out: MaxAPD95: maximum observed effect on APD95 from control value; for EC10: read-out: C10 APD95: concentration of drug which causes a 10% increase or decrease (-) in APD95 from control value; for EC20: read-out: C20 APD95: concentration of drug which causes a 20% increase or decrease (-) in APD95 from control value; for Vmax: change in the rate of rise of phase 0 of the action potential from control value (in words): concentration not given, NE = no effect; for inhibition at 100 µM: at 100 (concentration, μM)
Procedure: The primary method for evaluating these compounds as antiarrhythmic agents was an in vitro electro-physiological screen using canine Purkinje fibers. Using conventional microelectrode techniques the effects of the drugs on the action potential characteristics of the Purkinje fiber were measured. Both Class I and Class III antiarrhythmic agents can be disinguished using this method.

[1] = Canis lupus familiaris, purkinje, normal stimulated beat, basic cycle length 1000 milliseconds, NR = not reached
[2] = normal stimulated beat, basic cycle length 1000 milliseconds, NR = not reached
[3] = Canis lupus familiaris, purkinje
[4] = Canis lupus familiaris, purkinje, at 10 μM, basic cycle length 1000 milliseconds
[5] = Canis lupus familiaris, purkinje, at 10 (concentration, μM), read-out: Vmax: change in the rate of rise of phase 0 of the action potential from control value
[6] = Canis lupus familiaris, purkinje, read-out: Vmax: change in the rate of rise of phase 0 of the action potential from control value
[7] = Canis lupus familiaris, purkinje, basic cycle length 1000 milliseconds

| Compound | EC10 [1] [µM] | Emax at 10 µM [4] [%] | EC20 [1] [µM] | further results |
| --- | --- | --- | --- | --- |
| CCCCCCC[n+]1ccn(CCCCc2ccc(Cl)cc2)c1 [Compound I-1, 1-[4-(4-Chlorophenyl)butyl]-3-heptylimidazolium chloride] | 12 | – | – | Emax at 30 µM (Canis lupus familiaris, purkinje, at 30 μM, basic cycle length 1000 milliseconds): 27%; inhibition at 15 µM (Canis lupus familiaris, purkinje, at 15 (concentration, μM), read-out: Vmax: change in the rate of rise of phase 0 of the action potential from control value): 20% |
| CCCCCCCn1cc[n+](CCCCc2ccc(OC)cc2)c1.[Br-] [Compound I-7] | – | – | – | MaxAPD95: maximum observed effect on APD95 from control value (at 10 μM, basic cycle length 1000 milliseconds): 26%; Vmax: change in the rate of rise of phase 0 of the action potential from control value (at 10 (concentration, μM), 10 µM): -12%; EC10 [2]: 0.5 µM; EC20 [2]: 8 µM |
| CCCCCCC[n+]1ccn(CCCCc2ccc(NC(C)=O)cc2)c1.Cc1ccc(S(=O)(=O)[O-])cc1 [Compound I-14, 1-[4-(4-(Acetylamino)phenyl)butyl]-3-heptylimidazolium 4-methylbenzenesulfonate] | – | – | – | EC10 [3]: 13 µM; EC20 [3]: 30 µM; Emax at 30 µM [3]: 21%; Vmax: change in the rate of rise of phase 0 of the action potential from control value (in words): increased |
| CCC[n+]1ccn(CCCCc2ccc(Cl)cc2)c1.O=P([O-])(O)O [Compound I-16, 1-[4-(4-Chlorophenyl)butyl]-3-propylimidazolium dihydrogenphosphate] | 6 | 11 | – | Vmax: change in the rate of rise of phase 0 of the action potential from control value (at >10 (concentration, μM)): -20% |
| CCCCCCC[n+]1ccn(CCCCc2ccc(F)cc2)c1 [Compound I-19, 1-[4-(4-Fluorophenyl)butyl]-3-heptylimidazolium dihydrogenphosphate] | 1 | 20 | 10 | inhibition at 10 µM [5]: 6% |
| CCCCC[n+]1ccn(CCCCc2ccc(Cl)cc2)c1 [Compound I-20, 1-[4-(4-Chlorophenyl)butyl]-3-pentylimidazolium dihydrogenphosphate] | 0.8 | 23 | 6 | – |
| CCCCn1cc[n+](CCCCc2ccc(Cl)cc2)c1 [Compound I-21, 1-Butyl-3-[4-(4-chlorophenyl)butyl]imidazolium dihydrogenphosphate] | 2 | 25 | 6 | – |
| CCCCCCCn1cc[n+](CCCCc2ccc(NS(C)(=O)=O)cc2)c1.O=P([O-])(O)O [Compound I-22, 1-Heptyl-3-[4-[4-[[(methyl)sulfonyl]amino]phenyl]butyl]imidazolium dihydrogenphosphate] | 1.3 | 39 | 3 | Vmax: change in the rate of rise of phase 0 of the action potential from control value (in words): Minimal |
| CCCCCCC[n+]1ccn(C(C)CCCc2ccc(Cl)cc2)c1 (stereo not shown) [Compound I-25, 1-[4-(4-Chlorophenyl)-1-methylbutyl]-3-heptylimidazolium 4-methylbenzenesulfonate] | – | – | – | EC10 [3]: 10 µM; Emax at 10 µM [3]: 10% |
| CCCCCCC[n+]1ccn(CCC#Cc2ccc(Cl)cc2)c1 [Compound I-29, 1-[4-(4-Chlorophenyl)-3-butynyl]-3-heptylimidazolium 4-methylbenzenesulfonate] | – | – | – | EC10 [3]: 20 µM; Emax at 30 µM [3]: 15%; inhibition at 20 µM [6]: 20% |
| Cc1n(C)cc[n+]1CCCCc1ccc(NS(C)(=O)=O)cc1 [Compound I-30, 1,2-Dimethyl-3-[4-[4-[[methanesulfonyl]amino]phenyl]butyl]imidazolium methanesulfonate] | 1 | 23 | 7 | – |
| Cc1n(CCCCc2ccc(Cl)cc2)cc[n+]1C [Compound I-34, 1-[4-(4-Chlorophenyl)butyl]-2,3-dimethylimidazolium chloride] | 1.4 | 25 | 6 | – |
| C[n+]1ccn(CC(O)c2ccc(NS(C)(=O)=O)cc2)c1 (stereo not shown) [Compound I-38, 1-[2-Hydroxy-2-[4-[(methanesulfonyl)amino]phenyl]ethyl]-3-methylimidazolium iodide] | 0.3 | 63 | 0.8 | inhibition at 10 µM [5]: 5% |
| CCCCCCCn1cc[n+](CC(=O)c2ccc(NS(C)(=O)=O)cc2)c1 [Compound I-39, 1-Heptyl-3-[2-[4-[(methanesulfonyl)amino]phenyl]-2-oxoethyl]imidazolium br omide] | 1.7 | 21 | 9 | – |
| CCCCCCC[n+]1ccn(C/C=C\Cc2ccc(Cl)cc2)c1 [Compound I-42, (Z)-1-[4-(4-Chlorophenyl)-2-butenyl]-3-heptylimidazolium dihydrogenphosphate] | 38 | – | – | Emax at 100 µM [7]: 12%; inhibition at 100 µM [6]: 26% |
| Cn1cc[n+](CCc2ccc(NS(C)(=O)=O)cc2)c1 [Compound I-43, 1-Methyl-3-[2-[4-((methylsulfonyl)amino)phenyl]ethyl]-1H-imidazolium iodide] | 2 | 21 | 8 | – |
| Cn1cc[n+](CC(=O)c2ccc(NS(C)(=O)=O)cc2)c1 [Compound I-44, 1-Methyl-3-[2-[4-((methylsulfonyl)amino)phenyl]-2-oxoethyl]-1H-imidazoliumbromide] | 1 | 38 | 2.3 | – |
| O=[N+]([O-])c1ccc(CCCCn2ccnc2)cc1 [II-1, 1-[4-(4-Nitrophenyl)butyl]imidazole hydrochloride] | 1.2 | 27 | 4 | – |
| CS(=O)(=O)Nc1ccc(C(=O)Cn2ccnc2)cc1 [II-2, N-[4-(1H-Imidaz-1-ylacetyl)phenyl]methanesulfonamide] | 3 | – | 14 | Emax at 100 µM [7]: 67%; inhibition at 100 µM [6]: 15% |
| O=C(Cn1ccnc1)c1ccc([N+](=O)[O-])cc1 [II-3, 2-(1H-Imidaz-1-yl)-1-(4-nitrophenyl)ethanone hydrochloride] | 20 | – | 50 | Emax at 100 µM [7]: 29% |
| CS(=O)(=O)Nc1ccc(C(O)Cn2ccnc2)cc1 (stereo not shown) [II-4, N-[4-(1-Hydroxy-2-(1H-imidazol-1-yl)ethyl]phenyl]methanesulfonamide] | 2 | 23 | 7 | inhibition at 10 µM [5]: 15% |
| Nc1ccc(C(=O)Cn2ccnc2)cc1 [II-5, 1-(4-Aminophenyl)-2-(1H-imidazol-1-yl)ethanone] | 4 | 13 | – | Vmax: change in the rate of rise of phase 0 of the action potential from control value (in words): Minimal |
| O=[N+]([O-])c1ccc(C(O)Cn2ccnc2)cc1 (stereo not drawn) [II-6, α-(4-Nitrophenyl)-1H-imidazole-1-ethanol] | 15 | – | 43 | Emax at 100 µM [7]: 28% |
| CS(=O)(=O)Nc1ccc(CCn2ccnc2)cc1 [II-7, N-[4-[2-(1H-Imidazol-1-yl)ethyl]phenyl]methanesulfonamide] | 2 | – | 10 | Emax at 100 µM [7]: 47% |
| O=[N+]([O-])c1ccc(CCn2ccnc2)cc1 [II-8, 1-[2-(4-Nitrophenyl)ethyl]-1H-imidazole hydrochloride] | 7 | – | 30 | Emax at 100 µM [7]: 29%; inhibition at 0.1 µM (Canis lupus familiaris, purkinje, at 0.1 (concentration, μM), read-out: Vmax: change in the rate of rise of phase 0 of the action potential from control value): 15% |
